Results from publication PMC8147216, “Genotoxicity Evaluation of Propyl-Propane-Thiosulfinate (PTS) from Allium genus Essential Oils by a Combination of Micronucleus and Comet Assays in Rats” (Foods, 2021).
Where “and” joins values, the source holds several entries; their conditions need not be identical. Equal values may be shown once. Read-outs that look alike come from different tables or passages of the source.

Assays:
bone marrow erythrocytes = assay: In vivo micronucleus (MN) assay in bone marrow (OECD 474); parameters: species or system Wistar rats
Description: (§1) After acclimation time, 28 male and 28 female rats were randomly divided into control or treatment groups: the negative control (C−) (five male and five female rats), the solvent control (C sol) (five male and five female rats) treated with water with 0.3% Tween 80, and the positive control (C+) (three male and three female rats) treated with 200 mg/kg b.w. of ethylmethanesulfonate (EMS). The three PTS-treated groups (five male and five female rats per group) were exposed to 55.0, 17.4, and 5.5 mg of PTS/kg b.w. The number of animals was selected according to OECD 474 [27] and OECD 489 [28], which state five animals per sex and per group, and which also allow the use of at least three animals of both sexes treated with a positive control.
Doses were dissolved in water with Tween 80 (final concentration 0.3%) in a final volume of 1.5 mL. Tween 80 was previously used in genotoxicity in vivo studies by Mellado-Garcia et al. with the aim of better conveying alliaceous compounds with an oily nature. All groups were dosed at 0, 24, and 45 h via gavage using a stomach tube (Vygon, Ecouen, France) and were sacrificed 3 h after the final dose administration for the combined comet assay and MN endpoints. The time points of PTS administrations, as well as the timing of sacrifice, were selected following the criteria of OECD guideline 489 and Bowen et al..
(§2) Samples of the liver and stomach were extracted, and a small part of each tissue was immediately handled, as described in Section 2.6, for the standard and enzyme-modified comet assay. Moreover, blood samples were extracted and preserved in Vacutainer® sodium Heparin Tubes (Becton, Dickinson, Rutherford, NJ, USA). Furthermore, samples from the bone marrow of both femurs of each animal were gathered for the MN assay and were rapidly used to prepare smears (Figure 1). For the histopathologic study, sections of the liver and stomach were excised, rinsed with cold saline solution, and preserved in 10% buffered formalin for light microscopy, according to Llana-Ruiz-Cabello et al..
The MN test was performed according to the OECD guideline 474 [27] and Diez-Quijada et al.. The bone marrow of the femurs of the rats were mixed with a drop of fetal bovine serum. Therefore, slides were immersed in methanol, dried, and stained with Giemsa (Figure 1).
The polychromatic erythrocytes (PCE) among total erythrocytes (polychromatic and normochromic erythrocytes (NCE)) ratio and PCE for every NCE ratio were calculated by counting 500 erythrocytes per rat. The number of micronuclei found in immature erythrocytes was calculated by counting a total of 5000 […] per rat, and it was expressed as %MN.

Caco-2 cells [1] = test system: Caco-2 cells; parameters: method as in PMID 27939830; settings: 24 and 48 h, highest concentration assayed; cited from earlier work
[2] = parameters: method as in PMID 27939830; settings: 8.75–280 µM, presence or absence of S9; cited from earlier work
L5178YTk+/− cells [3] = test system: L5178YTk+/− cells; parameters: method as in PMID 27939830; settings: 0.9–15.65 µM, 24 and 48 h of treatment; cited from earlier work
L5178YTk+/− cells [4] = test system: L5178YTk+/− cells; parameters: method as in PMID 27939830; settings: cited from earlier work
Caco-2 cells [5] = test system: Caco-2 cells; parameters: method as in PMID 27939830; settings: 24–48 h; cited from earlier work
male and female rats [6] = assay: Combined in vivo MN-comet assay (overall genotoxicity); settings: male and female rats orally exposed, 55.0, 17.4 or 5.5 mg PTS/kg b.w.
Description: After acclimation time, 28 male and 28 female rats were randomly divided into control or treatment groups: the negative control (C−) (five male and five female rats), the solvent control (C sol) (five male and five female rats) treated with water with 0.3% Tween 80, and the positive control (C+) (three male and three female rats) treated with 200 mg/kg b.w. of ethylmethanesulfonate (EMS). The three PTS-treated groups (five male and five female rats per group) were exposed to 55.0, 17.4, and 5.5 mg of PTS/kg b.w. The number of animals was selected according to OECD 474 [27] and OECD 489 [28], which state five animals per sex and per group, and which also allow the use of at least three animals of both sexes treated with a positive control. Doses were dissolved in water with Tween 80 (final concentration 0.3%) in a final volume of 1.5 mL. Tween 80 was previously used in genotoxicity in vivo studies by Mellado-Garcia et al. with the aim of better conveying alliaceous compounds with an oily nature. All groups were dosed at 0, 24, and 45 h via gavage using a stomach tube (Vygon, Ecouen, France) and were sacrificed 3 h after the final dose administration for the combined comet assay and MN endpoints. The time points of PTS administrations, as well as the timing of sacrifice, were selected following the criteria of OECD guideline 489 and Bowen et al..

[7] = test system: liver, stomach and blood cells; assay: In vivo enzyme-modified comet assay (Endo III, FPG); parameters: species or system Wistar rats; settings: any tissue assayed (liver, stomach, blood); 5.5, 17.4, 55.0 mg/kg
Description: as §1
(§3) Doses were dissolved in water with Tween 80 (final concentration 0.3%) in a final volume of 1.5 mL. Tween 80 was previously used in genotoxicity in vivo studies by Mellado-Garcia et al. with the aim of better conveying alliaceous compounds with an oily nature. […]
(§4) At least 150 randomly selected nuclei per rat were analyzed with the image-analysis-software Comet Assay IV (Perceptive Instruments, UK). The %DNA in the tail, automatically acquired by the software, were used to define each of the comets analyzed. […] The medians of the scored comets were taken to describe each animal, and the means of each group of doses and controls are represented in Figure 2.

[8] = test system: liver, stomach and blood cells; assay: In vivo standard comet assay (OECD 489); parameters: species or system Wistar rats; settings: any doses assayed, either sex
Description: as §1, §3, §4

rats [9] = assay: Acute toxicity study to establish the maximum tolerated dose; assay type: in vivo
Description: The selection of PTS doses was calculated while taking into account a preceding acute toxicity study carried out by our research group, in which rats (8–10 weeks old) were administrated decreasing doses of PTS to establish the maximum tolerated dose (MTD). […] At that dose, no remarkable injury was detected in the treated rats, and no evidence of study-limiting toxicity was observed. Then, considering the ICH S2 Guidelines and the OECD protocols 474 [27] and 489 [28], the limit dose or MTD of 55.0 mg/kg b.w. was chosen as the highest dose, and two additional properly spaced dose levels (divided by √10) were also calculated. Consequently, the doses were set at 55.0, 17.4, or 5.5 mg of PTS/kg b.w.

rats [10] = assay: Observation of clinical signs after treatment; assay type: in vivo, Wistar rats; settings: all levels of doses of PTS (5.5, 17.4, 55.0 mg/kg b.w.), oral gavage
Source text: After treatment, each rat was observed twice daily for clinical signs such as changes in the eye, fur, or skin, changes in gait and posture, and secretions.

liver and stomach [11] = assay: Histopathological analysis of liver and stomach; assay type: in vivo, rats
Source text: as §2
Liver and stomach samples were processed and observed under the microscope according to Diez-Quijada et al.. A semiquantitative evaluation of the severity of lesions was scored as follows: 0, no significant lesions (0%); 1, minimal (<10%); 2, mild (11–25%); 3, moderate (26–50%); 4, severe (51–75%); and 5: very severe (>75%). Samples were individually examined by two unbiased and experienced observers, a veterinary pathologist, and an investigator (V.M-H. and R.M.).

[12] = parameters: method as in PMID 26607106; settings: four in vitro genotoxicity assays; cited from earlier work
liver and stomach [13] = test system: liver and stomach; parameters: method as in PMID 27085469; settings: in vivo genotoxicity study; except glycogen accumulation in liver and slight degeneration in stomach at 55.0 mg/kg; cited from earlier work
male and female rats [14] = test system: male and female rats; parameters: method as in PMID 27085469; settings: cited from earlier work
[15] = female, Wistar, rat, in vivo, 200 mg/kg, 48 h
[16] = male, Wistar, rat, in vivo, 200 mg/kg, 48 h
[17] = females, 5.5 mg/kg, gavage at 0, 24, 45 h, mean ± SD
[18] = females, 17.4 mg/kg, gavage at 0, 24, 45 h, mean ± SD
[19] = females, 55.0 mg/kg, gavage at 0, 24, 45 h, mean ± SD
[20] = males, 5.5 mg/kg, gavage at 0, 24, 45 h, mean ± SD
[21] = males, 17.4 mg/kg, gavage at 0, 24, 45 h, mean ± SD
[22] = males, 55.0 mg/kg, gavage at 0, 24, 45 h, mean ± SD

CCOS(C)(=O)=O [EMS, ethylmethanesulfonate, reference compound]
%MN (bone marrow erythrocytes; [15]): 2.53 ± 0.38 % | PCE/NCE (bone marrow erythrocytes; [15]): 0.53 ± 0.29 | PCE/Total (bone marrow erythrocytes; [15]): 0.33 ± 0.12 | %MN (bone marrow erythrocytes; [16]): 1.46 ± 0.72 % | PCE/NCE (bone marrow erythrocytes; [16]): 0.54 ± 0.12 | PCE/Total (bone marrow erythrocytes; [16]): 0.35 ± 0.05

CCCS[S+]([O-])CCC (stereo not drawn) [PTS, Propyl-propanethiosulfinate]
concentration with positive results in standard comet assay (Caco-2 cells [1]): 280 µM and 280.0 µM | mutagenicity in the Ames test [2]: not mutagenic | mutagenicity in MLA assay (L5178YTk+/− cells [3]): not mutagenic | concentration with positive results in MN test in vitro (L5178YTk+/− cells [4]; metabolites (+S9)): ≥ 20 µM | concentration with positive results in MN test in vitro (L5178YTk+/− cells [4]; without S9, highest concentration assayed): 17.25 µM | % of MN in immature erythrocytes vs controls (bone marrow erythrocytes; any groups (5.5, 17.4, 55 mg/kg) of either sex): not significantly changed | %MN (bone marrow erythrocytes; [17]): 0.86 ± 0.09% | PCE/NCE (bone marrow erythrocytes; [17]): 1.03 ± 0.43 | PCE/Total (bone marrow erythrocytes; [17]): 0.49 ± 0.10 | %MN (bone marrow erythrocytes; [18]): 0.74 ± 0.06% | PCE/NCE (bone marrow erythrocytes; [18]): 0.68 ± 0.36 | PCE/Total (bone marrow erythrocytes; [18]): 0.38 ± 0.13 | %MN (bone marrow erythrocytes; [19]): 1.03 ± 0.21% | PCE/NCE (bone marrow erythrocytes; [19]): 0.54 ± 0.28 | PCE/Total (bone marrow erythrocytes; [19]): 0.33 ± 0.11 | %MN (bone marrow erythrocytes; [20]): 0.46 ± 0.21% | PCE/NCE (bone marrow erythrocytes; [20]): 1.31 ± 0.30 | PCE/Total (bone marrow erythrocytes; [20]): 0.56 ± 0.05 | %MN (bone marrow erythrocytes; [21]): 0.72 ± 0.30% | PCE/NCE (bone marrow erythrocytes; [21]): 1.14 ± 0.34 | PCE/Total (bone marrow erythrocytes; [21]): 0.52 ± 0.08 | %MN (bone marrow erythrocytes; [22]): 0.46 ± 0.15% | PCE/NCE (bone marrow erythrocytes; [22]): 0.89 ± 0.21 | PCE/Total (bone marrow erythrocytes; [22]): 0.46 ± 0.06 | DNA damage after incubation with enzymes (Endo III or FPG) (Caco-2 cells [5]): no increase in DNA damage | in vivo genotoxicity (male and female rats [6]): not genotoxic | frequency of Endo III or FPG-sensitive sites [7]: no remarkable changes | DNA strand breaks (%DNA in tail), standard comet assay [8]: No observed DNA stand breaks | mortality (rats [9]; initial dose 175.0 mg of PTS/kg b.w.): death of one of the three animals | maximum tolerated dose (MTD) (rats [9]; rat, in vivo): 55.0 mg of PTS/kg | clinical signs (rats [10]): No clinical signs were observed | severity of lesions in glandular stomach (liver and stomach [11]; 55.0 mg/kg, hypertrophy of mucus cells and flaking epithelium, p < 0.05 vs controls): minimal to mild | severity of lesions in liver (liver and stomach [11]; 55.0 mg/kg, inflammatory infiltrates and centrilobular degeneration of hepatocytes, p < 0.05 vs controls): minimal (1, minimal (<10%)) | severity of changes in liver (liver and stomach [11]; 17.4 and 5.5 mg/kg, similar to negative and solvent controls): minimal (1, minimal (<10%)) | severity of histopathological changes in stomach (liver and stomach [11]; 17.4 and 5.5 mg/kg, statistically significant): minimal (1, minimal (<10%)) | lesions in the nonglandular stomach (liver and stomach [11]; positive control (EMS 200 mg/kg) and PTS 55.0 mg/kg groups, with pyogranulomatous inflammatory infiltrate): vacuolation of the squamous epithelium in the mucosa

CCCSS(=O)(=O)CCC [PTSO, propyl thiosulfinate oxide]
in vitro genotoxicity responses [12]: contradictory responses | histopathological damage in liver and stomach (liver and stomach [13]): no relevant damage | in vivo genotoxicity (male and female rats [14]): lack of PTSO genotoxicity
